Measured values from patent US20260226048A1, “MULTI-CYCLIC IRAK AND FLT3 INHIBITING COMPOUNDS AND USES THEREOF” (CHILDREN'S HOSPITAL MEDICAL CENTER, priority 2023, published 2026).

How the values were obtained:
MOLM14 F691L cells = test: MOLM14 F691L cell viability assay (Cell Titer Glo); type: cell-based; conditions: Homo sapiens, MOLM-14; cell viability, Cell Titer Glo, 48 hours; read-out: MOLM14 F691L IC50
Protocol: Both cell lines have activated FLT3 receptors, each of which carry additional resistance mutations in the kinase domain (D835Y and F691L, respectively).
For viability/cytotoxicity assessments, cells were seeded into 1536-well white polystyrene tissue culture-treated Greiner plates using a Multidrop Combi dispenser (ThermoFisher), in final volume 5 μL of growth media per well, at a density of 1000 cells per well. […] Plates were incubated for 48 hours at standard incubator conditions covered by a stainless steel gasketed lid to prevent evaporation. 48 hours post compound addition, 3 μL of Cell Titer Glo (Promega) were added to each well and plates were incubated at room temperature for 15 minutes with the stainless-steel lid in place. Luminescence readings were taken using a Viewlux imager (PerkinElmer) with a 2 second exposure time per plate.

IRAK4 = target: T1, IRAK4 (Homo sapiens, UniProt Q9NWZ3); test: RBC HotSpot Kinase Assay, IRAK4; type: biochemical; parameters: purchased Reaction Biology (RBC HotSpot); conditions: isolated kinase enzyme, 33P-ATP, P81 filter-binding
T1 sequence (Q9NWZ3 1-460): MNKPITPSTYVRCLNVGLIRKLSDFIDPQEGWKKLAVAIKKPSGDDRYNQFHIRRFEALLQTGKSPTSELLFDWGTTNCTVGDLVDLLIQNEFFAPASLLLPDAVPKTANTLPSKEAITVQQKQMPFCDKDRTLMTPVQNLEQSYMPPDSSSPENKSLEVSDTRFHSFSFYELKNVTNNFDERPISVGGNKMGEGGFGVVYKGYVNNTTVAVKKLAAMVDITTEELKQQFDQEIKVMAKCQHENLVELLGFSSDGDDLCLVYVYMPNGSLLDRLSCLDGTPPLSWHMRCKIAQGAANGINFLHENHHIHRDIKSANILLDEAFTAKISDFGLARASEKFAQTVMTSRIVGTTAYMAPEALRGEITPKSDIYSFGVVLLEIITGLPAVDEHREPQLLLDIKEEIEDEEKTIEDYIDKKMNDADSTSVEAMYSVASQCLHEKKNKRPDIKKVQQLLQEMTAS
Procedure, shortened: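 Radiometric filter-binding activity assay with isolated recombinant kinase (construct may be truncated or catalytic domain only) in 20 mM Hepes pH 7.5, 10 mM MgCl2, 1 mM EGTA, 2 mM DTT, 1% DMSO. Compound preincubated 20 min with kinase/substrate; reaction started with 33P-ATP, run 2 h at room temperature.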

FLT3 = target: T2, FLT3 (Homo sapiens, UniProt P36888); test: RBC HotSpot Kinase Assay, FLT3; type: biochemical; parameters: purchased Reaction Biology (RBC HotSpot); conditions: isolated kinase enzyme, 33P-ATP, P81 filter-binding
T2 sequence (P36888 27-993): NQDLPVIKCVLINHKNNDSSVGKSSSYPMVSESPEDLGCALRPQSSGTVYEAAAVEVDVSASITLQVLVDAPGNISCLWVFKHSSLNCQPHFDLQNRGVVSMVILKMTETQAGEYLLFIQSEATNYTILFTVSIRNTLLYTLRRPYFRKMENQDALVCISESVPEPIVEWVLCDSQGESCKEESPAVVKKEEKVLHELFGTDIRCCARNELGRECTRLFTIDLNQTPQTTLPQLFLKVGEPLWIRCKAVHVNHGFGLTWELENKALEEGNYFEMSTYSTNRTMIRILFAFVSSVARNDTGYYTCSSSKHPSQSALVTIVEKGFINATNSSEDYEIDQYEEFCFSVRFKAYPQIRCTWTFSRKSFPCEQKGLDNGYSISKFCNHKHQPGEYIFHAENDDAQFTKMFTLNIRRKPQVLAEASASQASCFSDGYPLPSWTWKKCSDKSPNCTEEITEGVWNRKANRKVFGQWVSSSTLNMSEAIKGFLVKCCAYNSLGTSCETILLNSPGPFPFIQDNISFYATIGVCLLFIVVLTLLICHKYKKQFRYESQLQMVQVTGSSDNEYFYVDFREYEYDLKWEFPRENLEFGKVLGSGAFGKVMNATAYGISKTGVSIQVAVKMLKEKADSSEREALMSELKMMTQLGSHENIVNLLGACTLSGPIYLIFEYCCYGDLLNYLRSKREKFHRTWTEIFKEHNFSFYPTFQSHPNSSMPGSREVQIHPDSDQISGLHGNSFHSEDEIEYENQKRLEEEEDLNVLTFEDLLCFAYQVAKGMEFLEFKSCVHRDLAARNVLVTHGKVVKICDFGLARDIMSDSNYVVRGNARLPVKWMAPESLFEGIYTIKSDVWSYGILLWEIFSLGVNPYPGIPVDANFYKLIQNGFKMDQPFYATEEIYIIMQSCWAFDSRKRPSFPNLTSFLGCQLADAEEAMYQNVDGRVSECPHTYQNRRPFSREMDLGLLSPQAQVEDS
Procedure, shortened: (§1)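 Reactions ran in 20 mM Hepes (pH 7.5) containing 10 mM MgCl2, 1 mM EGTA, 0.1 mM Na3VO4, 2 mM DTT, 0.02 mg/ml BSA, 0.01% Brij35 and 1% DMSO, plus required cofactors. Functional activity readout on the expressible enzyme form, sometimes C-terminally truncated or lacking receptor regulatory regions.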

IRAK1 = target: T3, IRAK1 (Homo sapiens, UniProt P51617); test: RBC HotSpot Kinase Assay, IRAK1; type: biochemical; conditions: isolated kinase enzyme, 33P-ATP, P81 filter-binding
T3 construct: purchased Reaction Biology (RBC HotSpot)
Procedure, shortened: as §1

MOLM14 D835Y cells = test: MOLM14 D835Y cell viability assay (Cell Titer Glo); type: cell-based; conditions: Homo sapiens, MOLM-14, 48 h, cell viability, Cell Titer Glo, 48 hours; read-out: MOLM14 D835Y IC50
Procedure, shortened: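 Luminescent ATP read-out (CellTiter-Glo, 15 min room temperature) taken 48 h after compound addition. Cells were MOLM14 carrying FLT3 D835Y or F691L mutations, plated at 1000 cells per well.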

T3 sequence (P51617 whole entry): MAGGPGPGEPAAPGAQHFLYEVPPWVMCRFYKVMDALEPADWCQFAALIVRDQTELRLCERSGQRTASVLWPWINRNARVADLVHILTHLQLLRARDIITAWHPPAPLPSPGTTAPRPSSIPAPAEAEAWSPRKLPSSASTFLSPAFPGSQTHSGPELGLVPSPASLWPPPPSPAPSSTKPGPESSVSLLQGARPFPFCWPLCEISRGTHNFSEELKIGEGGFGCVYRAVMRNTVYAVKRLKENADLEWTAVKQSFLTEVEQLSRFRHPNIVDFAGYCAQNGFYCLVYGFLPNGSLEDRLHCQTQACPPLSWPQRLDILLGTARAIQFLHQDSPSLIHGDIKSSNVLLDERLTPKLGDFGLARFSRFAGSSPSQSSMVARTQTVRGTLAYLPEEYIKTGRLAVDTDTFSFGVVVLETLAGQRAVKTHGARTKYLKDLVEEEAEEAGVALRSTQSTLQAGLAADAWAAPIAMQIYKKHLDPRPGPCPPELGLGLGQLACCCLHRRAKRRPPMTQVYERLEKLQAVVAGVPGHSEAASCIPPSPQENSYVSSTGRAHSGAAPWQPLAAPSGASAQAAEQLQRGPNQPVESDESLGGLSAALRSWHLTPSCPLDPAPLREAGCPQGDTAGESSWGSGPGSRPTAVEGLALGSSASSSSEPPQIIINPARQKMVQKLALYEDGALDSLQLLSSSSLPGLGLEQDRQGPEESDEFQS

SMILES | IC50 (MOLM14 F691L cells) | IC50 (IRAK4) | IC50 (FLT3) | IC50 (IRAK1) | IC50 (MOLM14 D835Y cells)
COc1cc2ncc(-c3ccnc(N[C@@H]4CCCNC4)n3)n2nc1C1CCCCC1 [Compound 87a, (R)-4-(6-cyclohexyl-7-methoxyimidazo[1,2-b]pyridazin-3-yl)-N-(piperidin-3-yl)pyrimidin-2-amine] | 252 nM | 3 nM | < 0.5 nM | 26 nM | 28 nM
COc1cc2ncc(-c3ccnc(N[C@H]4CNCC[C@@H]4F)n3)n2nc1C1CCCCC1 [Compound 88a, 4-(6-cyclohexyl-7-methoxyimidazo[1,2-b]pyridazin-3-yl)-N-((3S,4S)-4-fluoropiperidin-3-yl)pyrimidin-2-amine] | 179 nM | 4 nM | < 0.5 nM | 13 nM | 25 nM
COc1cc2ncc(-c3ccnc(N[C@H]4CNC[C@@H]4F)n3)n2nc1C12CC(C1)C2 [Compound 89a, 4-(6-(bicyclo[1.1.1]pentan-1-yl)-7-methoxyimidazo[1,2-b]pyridazin-3-yl)-N-((3S,4S)-4-fluoropyrrolidin-3-yl)pyrimidin-2-amine] | 160 nM | 4 nM | < 0.5 nM | 44 nM | 18 nM
COc1cc2ncc(-c3ccnc(N[C@@H]4CCCNC4)n3)n2nc1C12CC(C1)C2 [Compound 90a, (R)-4-(6-(bicyclo[1.1.1]pentan-1-yl)-7-methoxyimidazo[1,2-b]pyridazin-3-yl)-N-(piperidin-3-yl)pyrimidin-2-amine] | 449 nM | 9 nM | < 0.5 nM | 85 nM | 50 nM
COc1cc2ncc(-c3ccnc(N[C@H]4CNCC[C@@H]4F)n3)n2nc1C12CC(C1)C2 [Compound 91a, 4-(6-(bicyclo[1.1.1]pentan-1-yl)-7-methoxyimidazo[1,2-b]pyridazin-3-yl)-N-((3S,4S)-4-fluoropiperidin-3-yl)pyrimidin-2-amine] | 283 nM | 5 nM | < 0.5 nM | 45 nM | 28 nM
COc1cc2ncc(-c3nc(N[C@H]4CNC[C@@H]4F)ncc3F)n2nc1C1COC1 [Compound 93a, 5-fluoro-N-((3S,4S)-4-fluoropyrrolidin-3-yl)-4-(7-methoxy-6-(oxetan-3-yl)imidazo[1,2-b]pyridazin-3-yl)pyrimidin-2-amine] | 142 nM | < 0.5 nM | < 0.5 nM | 5 nM | 13 nM
COc1cc2ncc(-c3ccnc(N[C@H]4CNC[C@@H]4F)n3)n2nc1C1COC1 [Compound 95a, N-((3S,4S)-4-fluoropyrrolidin-3-yl)-4-(7-methoxy-6-(oxetan-3-yl)imidazo[1,2-b]pyridazin-3-yl)pyrimidin-2-amine] | 2000 nM | 6 nM | 0.7 nM | 300 nM | 113 nM
COc1cc2ncc(-c3ccnc(N[C@@H]4CCCNC4)n3)n2nc1C1COC1 [Compound 96a, (R)-4-(7-methoxy-6-(oxetan-3-yl)imidazo[1,2-b]pyridazin-3-yl)-N-(piperidin-3-yl)pyrimidin-2-amine] | 160 nM | 62 nM | 0.5 nM | 1790 nM | 16 nM
COc1cc2ncc(-c3ccnc(N[C@H]4CNCC[C@@H]4F)n3)n2nc1C1COC1 [Compound 97a, N-((3S,4S)-4-fluoropiperidin-3-yl)-4-(7-methoxy-6-(oxetan-3-yl)imidazo[1,2-b]pyridazin-3-yl)pyrimidin-2-amine] | 318 nM | 4 nM | 0.7 nM | 361 nM | 32 nM
CC(C)(O)c1cn2c(-c3nc(N[C@H]4CNC[C@@H]4F)ncc3F)cnc2cn1 [Compound 98a, 2-(3-(5-fluoro-2-(((3S,4S)-4-fluoropyrrolidin-3-yl)amino)pyrimidin-4-yl)imidazo[1,2-a]pyrazin-6-yl)propan-2-ol] | 2520 nM | 2 nM | 1 nM | 46 nM | 113 nM
CC(C)(O)c1cn2c(-c3nc(N[C@@H]4CCCNC4)ncc3F)cnc2cn1 [Compound 99a, (R)-2-(3-(5-fluoro-2-(piperidin-3-ylamino)pyrimidin-4-yl)imidazo[1,2-a]pyrazin-6-yl)propan-2-ol] | 1420 nM | 11 nM | 3 nM | 44 nM | 142 nM
COc1cc2ncc(-c3nc(N[C@H]4CNC[C@@H]4F)ncc3Cl)n2nc1C1CC1 [Compound 101a, 5-chloro-4-(6-cyclopropyl-7-methoxyimidazo[1,2-b]pyridazin-3-yl)-N-((3S,4S)-4-fluoropyrrolidin-3-yl)pyrimidin-2-amine] | 711 nM | 1 nM | 0.8 nM | 24 nM | 113 nM
COc1cc2ncc(-c3nc(N[C@@H]4CCCNC4)ncc3Cl)n2nc1C1CC1 [Compound 102a, (R)-5-chloro-4-(6-cyclopropyl-7-methoxyimidazo[1,2-b]pyridazin-3-yl)-N-(piperidin-3-yl)pyrimidin-2-amine] | 71 nM | 2 nM | < 0.5 nM | 81 nM | 23 nM
COc1cc2ncc(-c3nc(N[C@H]4CNCC[C@@H]4F)ncc3Cl)n2nc1C1CC1 [Compound 103a, 5-chloro-4-(6-cyclopropyl-7-methoxyimidazo[1,2-b]pyridazin-3-yl)-N-((3S,4S)-4-fluoropiperidin-3-yl)pyrimidin-2-amine] | 201 nM | 3 nM | 0.7 nM | 179 nM | 71 nM
COc1cnc(N[C@@H]2CCCNC2)nc1-c1cnc2cc(OC)c(C3CC3)nn12 [Compound 105a, (R)-4-(6-cyclopropyl-7-methoxyimidazo[1,2-b]pyridazin-3-yl)-5-methoxy-N-(piperidin-3-yl)pyrimidin-2-amine] | 6340 nM | 259 nM | 33 nM | > 10000 nM | 711 nM
COc1cc2ncc(-c3nc(N[C@H]4CNC[C@@H]4F)ncc3F)n2nc1N1CCCC1=O [Compound 107a, 1-(3-(5-fluoro-2-(((3S,4S)-4-fluoropyrrolidin-3-yl)amino)pyrimidin-4-yl)-7-methoxyimidazo[1,2-b]pyridazin-6-yl)pyrrolidin-2-one] | 1130 nM | 20 nM | 0.6 nM | 102 nM | 80 nM
